Source: the CheMixHub ionic liquid set

Assay: xn = mol fraction of the nth substance listed

OCC(F)(F)F + CCCC[n+]1ccn(C)c1.F[B-](F)(F)F
viscosity [mPa·s], 101 kPa
Settings	x1 = 0.3913	x1 = 0.5788	x1 = 0.7238	x1 = 0.8247	x1 = 0.9013	x1 = 0.9587	x1 = 1
278.15 K	42.31	15.82	7.33	4.71	3.71	3.42	3.28
283.15 K	34.09	13.39	6.37	4.13	3.25	2.97	2.81
288.15 K	27.93	11.45	5.59	3.66	2.88	2.6	2.42
293.15 K	23.21	9.89	4.95	3.27	2.56	2.29	2.11
298.15 K	19.52	8.63	4.41	2.93	2.3	2.03	1.84
303.15 K	16.61	7.59	3.96	2.65	2.07	1.81	1.62
308.15 K	14.28	6.72	3.57	2.41	1.88	1.62	1.43
313.15 K	12.39	6	3.25	2.21	1.71	1.46	1.27
318.15 K	10.84	5.39	2.97	2.02	1.56	1.33	1.13
323.15 K	9.56	4.87	2.72	1.87	1.43	1.21	1.02
328.15 K	8.49	4.42	2.5	1.72	1.31	1.1	0.925
333.15 K	7.59	4.03	2.31	1.59	1.21	1	0.824

O=[N+]([O-])[O-].O=[N+]([O-])[O-].O=[N+]([O-])[O-].[Al+3] + O + CC[NH3+].O=[N+]([O-])[O-]
100 kPa
Settings	electrical conductivity [S/m]	viscosity [mPa·s]
233 K, x1 = 0.1395, x2 = 0.5934	0.001	–
243 K, x1 = 0.1395, x2 = 0.5934	0.006	–
243 K, x1 = 0.2128, x2 = 0.7086	0.002	–
253 K, x1 = 0.1395, x2 = 0.5934	0.025	–
253 K, x1 = 0.2128, x2 = 0.7086	0.011	–
263 K, x1 = 0.1395, x2 = 0.5934	0.077	–
263 K, x1 = 0.2128, x2 = 0.7086	0.037	–
273 K, x1 = 0.1395, x2 = 0.5934	0.18	–
273 K, x1 = 0.2128, x2 = 0.7086	0.094	–
283 K, x1 = 0.1395, x2 = 0.5934	0.354	–
283 K, x1 = 0.2128, x2 = 0.7086	0.2	–
288.15 K, x1 = 0.1395, x2 = 0.5934	–	274
288.15 K, x1 = 0.2128, x2 = 0.7086	–	880
293 K, x1 = 0.1395, x2 = 0.5934	0.615	–
293 K, x1 = 0.2128, x2 = 0.7086	0.371	–
293.15 K, x1 = 0.1395, x2 = 0.5934	–	204
293.15 K, x1 = 0.2128, x2 = 0.7086	–	587
298.15 K, x1 = 0.1395, x2 = 0.5934	–	153.7
298.15 K, x1 = 0.2128, x2 = 0.7086	–	394
303 K, x1 = 0.1395, x2 = 0.5934	0.974	–
303 K, x1 = 0.2128, x2 = 0.7086	0.624	–
303.15 K, x1 = 0.1395, x2 = 0.5934	–	116.8
303.15 K, x1 = 0.2128, x2 = 0.7086	–	269
308.15 K, x1 = 0.1395, x2 = 0.5934	–	89.5
308.15 K, x1 = 0.2128, x2 = 0.7086	–	185
313 K, x1 = 0.1395, x2 = 0.5934	1.43	–
313 K, x1 = 0.2128, x2 = 0.7086	0.971	–
313.15 K, x1 = 0.1395, x2 = 0.5934	–	69.2
313.15 K, x1 = 0.2128, x2 = 0.7086	–	129.3
323 K, x1 = 0.1395, x2 = 0.5934	2	–
323 K, x1 = 0.2128, x2 = 0.7086	1.42	–
333 K, x1 = 0.1395, x2 = 0.5934	2.66	–
333 K, x1 = 0.2128, x2 = 0.7086	1.98	–
343 K, x1 = 0.1395, x2 = 0.5934	3.41	–
343 K, x1 = 0.2128, x2 = 0.7086	2.64	–
353 K, x1 = 0.1395, x2 = 0.5934	4.25	–
353 K, x1 = 0.2128, x2 = 0.7086	3.42	–
363 K, x1 = 0.1395, x2 = 0.5934	5.17	–
363 K, x1 = 0.2128, x2 = 0.7086	4.3	–
373 K, x1 = 0.1395, x2 = 0.5934	6.16	–
373 K, x1 = 0.2128, x2 = 0.7086	5.28	–

CCCC[n+]1ccn(C)c1.N#C[S-] + CCCC[n+]1ccn(C)c1.O=S(=O)([N-]S(=O)(=O)C(F)(F)F)C(F)(F)F
100 kPa
Settings	viscosity [mPa·s]
283.15 K, x2 = 0.25	133.5
288.15 K, x2 = 0	104.5

CCCN + CC(C)(C)O + CCCCCC[n+]1ccn(C)c1.F[B-](F)(F)F
298.15 K, 101 kPa
Settings	viscosity [mPa·s]
x2 = 0.0474, x1 = 0.3489	46.28
x2 = 0.0483, x1 = 0.4517	28.58
x2 = 0.05, x1 = 0.0708	120.9
x2 = 0.05, x1 = 0.8998	0.723
x2 = 0.0508, x1 = 0.2562	66.1
x2 = 0.0508, x1 = 0.8482	1.318
x2 = 0.0525, x1 = 0.7484	3.959
x2 = 0.0529, x1 = 0.6504	8.74
x2 = 0.055, x1 = 0.5488	16.3
x2 = 0.0572, x1 = 0.1668	88.1
x2 = 0.1042, x1 = 0.1719	73.7
x2 = 0.1487, x1 = 0.0497	96.6
x2 = 0.1555, x1 = 0.1488	66.7
x2 = 0.247, x1 = 0.0423	72.1
x2 = 0.251, x1 = 0.3468	15.17
x2 = 0.3138, x1 = 0.0592	53
x2 = 0.3494, x1 = 0.5505	1.808
x2 = 0.3508, x1 = 0.5993	1.244
x2 = 0.3529, x1 = 0.349	7.072
x2 = 0.3545, x1 = 0.4468	2.923
x2 = 0.3596, x1 = 0.0184	53.2
x2 = 0.4492, x1 = 0.1454	18.61
x2 = 0.4496, x1 = 0.0492	32.35
x2 = 0.6483, x1 = 0.1509	7.984
x2 = 0.6496, x1 = 0.2508	4.06
x2 = 0.6511, x1 = 0.299	2.994
x2 = 0.6551, x1 = 0.0445	15.43
x2 = 0.7929, x1 = 0.1032	7.67
x2 = 0.8001, x1 = 0.15	5.198
x2 = 0.8965, x1 = 0.0518	7.226
